The molecules below were run against T1, Cannabinoid-1 receptor (CB1R) (Rattus norvegicus, UniProt P20272) (assay: Cannabinoid-1 receptor (CB1R) binding affinity assay ([3H]CP-55940, rat CB-1 receptor binding protocol)). Conditions: IC50(nM), brain tissue of SD rats, [3H]CP-55940, 30° C. 60 min.
T1 construct: The tissue obtained from the brain of SD rats was homogenized; from tissue; host or cells: brain of SD rats (membrane pellet of the homogenate)
T1 sequence (P20272 whole entry): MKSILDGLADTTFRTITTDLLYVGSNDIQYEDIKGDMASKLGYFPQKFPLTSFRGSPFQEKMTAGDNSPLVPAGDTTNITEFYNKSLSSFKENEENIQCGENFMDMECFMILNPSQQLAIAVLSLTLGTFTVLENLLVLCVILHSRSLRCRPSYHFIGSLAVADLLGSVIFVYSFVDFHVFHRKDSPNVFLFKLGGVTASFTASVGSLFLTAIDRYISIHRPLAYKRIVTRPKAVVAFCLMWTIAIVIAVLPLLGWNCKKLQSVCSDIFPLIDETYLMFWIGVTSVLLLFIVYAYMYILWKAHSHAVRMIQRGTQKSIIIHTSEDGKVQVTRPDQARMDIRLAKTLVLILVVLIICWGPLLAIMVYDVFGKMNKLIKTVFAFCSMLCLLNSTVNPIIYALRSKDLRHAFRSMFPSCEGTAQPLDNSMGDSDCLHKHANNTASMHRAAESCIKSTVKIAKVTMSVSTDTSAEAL
Work on `CCCCC(C)c1nnc(-c2nn(-c3ccccc3Cl)c(-c3ccc(Cl)cc3)c2C)s1` (stereo not shown) [Example 411, 2-(1-(2-chlorophenyl)-5-(4-chlorophenyl)-4-methyl-1H-pyrazol-3-yl)-5-(hexan-2-yl)-1,3,4-thiadiazole] yielded an IC50 of 13.5 nM.
`CCCC(C)c1nnc(-c2nn(-c3ccc(Cl)cc3Cl)c(-c3ccc(Cl)cc3)c2CC)s1` (stereo not shown) [Example 412, 2-(5-(4-chlorophenyl)-1-(2,4-dichlorophenyl)-4-ethyl-1H-pyrazol-3-yl)-5-(pentan-2-yl)-1,3,4-thiadiazole] gave an IC50 of 11 nM.

Same assay, conditions: brain tissue of SD rats, [3H]CP-55940, 30° C. 60 min; read-out: IC50
For `CCc1c(-c2nnc(C(C)(C)C)s2)nn(-c2ccc(Cl)cc2Cl)c1-c1ccc(Cl)cc1` [Example 389, 2-tert-butyl-5-(5-(4-chlorophenyl)-1-(2,4-dichlorophenyl)-4-ethyl-1H-pyrazol-3-yl)-1,3,4-thiadiazole], the IC50 was 11.1 nM.
For `CCc1c(-c2nnc(C3CCCCC3)s2)nn(-c2ccc(Cl)cc2Cl)c1-c1ccc(Cl)cc1` [Example 390, 2-(5-(4-chlorophenyl)-1-(2,4-dichlorophenyl)-4-ethyl-1H-pyrazol-3-yl)-5-cyclohexyl-1,3,4-thiadiazole], the IC50 was 18.2 nM.
For `Cc1c(-c2nnc(C(C)C3CCCC3)s2)nn(-c2ccc(Cl)cc2Cl)c1-c1ccc(Cl)cc1` (stereo not shown) [Example 391, 2-(5-(4-chlorophenyl)-1-(2,4-dichlorophenyl)-4-methyl-1H-pyrazol-3-yl)-5-(1-cyclopentylethyl)-1,3,4-thiadiazole], the IC50 was 14.3 nM.
`Cc1c(-c2nnc(C(C)C3CCCCC3)s2)nn(-c2ccc(Cl)cc2Cl)c1-c1ccc(Cl)cc1` (stereo not shown) [Example 392, 2-(5-(4-chlorophenyl)-1-(2,4-dichlorophenyl)-4-methyl-1H-pyrazol-3-yl)-5-(1-cyclohexylethyl)-1,3,4-thiadiazole] showed an IC50 of 46.7 nM.
`Cc1c(-c2nnc(C(C)(C)C3CCCC3)s2)nn(-c2ccc(Cl)cc2Cl)c1-c1ccc(Cl)cc1` [Example 393, 2-(5-(4-chlorophenyl)-1-(2,4-dichlorophenyl)-4-methyl-1H-pyrazol-3-yl)-5-(2-cyclopentylpropan-2-yl)-1,3,4-thiadiazole] showed an IC50 of 19.5 nM.
Work on `Cc1c(-c2nnc(C(C)(C)C3CCCCC3)s2)nn(-c2ccc(Cl)cc2Cl)c1-c1ccc(Cl)cc1` [Example 394, 2-(5-(4-chlorophenyl)-1-(2,4-dichlorophenyl)-4-methyl-1H-pyrazol-3-yl)-5-(2-cyclohexylpropan-2-yl)-1,3,4-thiadiazole] yielded an IC50 of 13.9 nM.
In the case of `CCc1c(-c2nnc(C3CCC3)s2)nn(-c2ccc(Cl)cc2Cl)c1-c1ccc(Cl)cc1` [Example 395, 2-(5-(4-chlorophenyl)-1-(2,4-dichlorophenyl)-4-ethyl-1H-pyrazol-3-yl)-5-cyclobutyl-1,3,4-thiadiazole], the IC50 is reported as 21.8 nM.
In the case of `CCc1c(-c2nnc(C3CCCC3)s2)nn(-c2ccc(Cl)cc2Cl)c1-c1ccc(Cl)cc1` [Example 396, 2-(5-(4-chlorophenyl)-1-(2,4-dichlorophenyl)-4-ethyl-1H-pyrazol-3-yl)-5-cyclopentyl-1,3,4-thiadiazole], the IC50 is reported as 9.94 nM.
`CCc1c(-c2nnc(C3CCCCCC3)s2)nn(-c2ccc(Cl)cc2Cl)c1-c1ccc(Cl)cc1` [Example 397, 2-(5-(4-chlorophenyl)-1-(2,4-dichlorophenyl)-4-ethyl-1H-pyrazol-3-yl)-5-cycloheptyl-1,3,4-thiadiazole] showed an IC50 of 9.42 nM.
`CCc1c(-c2nnc(C(C)CC)s2)nn(-c2ccc(Cl)cc2Cl)c1-c1ccc(Cl)cc1` (stereo not shown) [Example 398, 2-sec-butyl-5-(5-(4-chlorophenyl)-1-(2,4-dichlorophenyl)-4-ethyl-1H-pyrazol-3-yl)-1,3,4-thiadiazole] was tested, and the IC50 was 7.99 nM.
`CCc1c(-c2nnc(C(C)CC)s2)nn(-c2ccc(Cl)cc2Cl)c1-c1ccc(Br)cc1` (stereo not shown) [Example 399, 2-(5-(4-bromophenyl)-1-(2,4-dichlorophenyl)-4-ethyl-1H-pyrazol-3-yl)-5-sec-butyl-1,3,4-thiadiazole] showed an IC50 of 7.63 nM.
`CCc1c(-c2nnc(C3CCCCCC3)s2)nn(-c2ccc(Cl)cc2Cl)c1-c1ccc(Br)cc1` [Example 400, 2-(5-(4-bromophenyl)-1-(2,4-dichlorophenyl)-4-ethyl-1H-pyrazol-3-yl)-5-cycloheptyl-1,3,4-thiadiazole] was tested, and the IC50 was 5.26 nM.
Work on `Cc1c(-c2nnc(C(C)(C)c3ccccc3)s2)nn(-c2ccc(Cl)cc2Cl)c1-c1ccc(Cl)cc1` [Example 401, 2-(5-(4-chlorophenyl)-1-(2,4-dichlorophenyl)-4-methyl-1H-pyrazol-3-yl)-5-(2-phenylpropan-2-yl)-1,3,4-thiadiazole] yielded an IC50 of 6.9 nM.
Work on `Cc1c(-c2nnc(C(C)(C)c3ccc(Cl)cc3)s2)nn(-c2ccc(Cl)cc2Cl)c1-c1ccc(Cl)cc1` [Example 402, 2-(5-(4-chlorophenyl)-1-(2,4-dichlorophenyl)-4-methyl-1H-pyrazol-3-yl)-5-(2-(4-chlorophenyl)propan-2-yl)-1,3,4-thiadiazole] yielded an IC50 of 5.34 nM.
In the case of `CCC(C)c1nnc(-c2nn(-c3ccc(Cl)cc3Cl)c(-c3ccc(Br)cc3)c2C)s1` (stereo not shown) [Example 403, 2-(5-(4-bromophenyl)-1-(2,4-dichlorophenyl)-4-methyl-1H-pyrazol-3-yl)-5-sec-butyl-1,3,4-thiadiazole], the IC50 is reported as 10.7 nM.
In the case of `CCc1c(-c2nnc(C(C)(C)c3ccccc3)s2)nn(-c2ccc(Cl)cc2Cl)c1-c1ccc(Br)cc1` [Example 404, 2-(5-(4-bromophenyl)-1-(2,4-dichlorophenyl)-4-ethyl-1H-pyrazol-3-yl)-5-(2-phenylpropan-2-yl)-1,3,4-thiadiazole], the IC50 is reported as 5.15 nM.
Work on `Cc1c(-c2nnc(C(C)(C)C)s2)nn(-c2ccccc2Cl)c1-c1ccc(Cl)cc1` [Example 405, 2-tert-butyl-5-(1-(2-chlorophenyl)-5-(4-chlorophenyl)-4-methyl-1H-pyrazol-3-yl)-1,3,4-thiadiazole] yielded an IC50 of 14.7 nM.
For `CCCCC(C)(C)c1nnc(-c2nn(-c3ccc(Cl)cc3Cl)c(-c3ccc(Cl)cc3)c2C)s1` [Example 406, 2-(5-(4-chlorophenyl)-1-(2,4-dichlorophenyl)-4-methyl-1H-pyrazol-3-yl)-5-(2-methylhexan-2-yl)-1,3,4-thiadiazole], the IC50 was 27.4 nM.
In the case of `CCC(C)c1nnc(-c2nn(-c3ccccc3Cl)c(-c3ccc(Cl)cc3)c2C)s1` (stereo not shown) [Example 407, 2-sec-butyl-5-(1-(2-chlorophenyl)-5-(4-chlorophenyl)-4-methyl-1H-pyrazol-3-yl)-1,3,4-thiadiazole], the IC50 is reported as 18.4 nM.
With `Cc1c(-c2nnc(C3CCCCC3)s2)nn(-c2ccccc2Cl)c1-c1ccc(Cl)cc1` [Example 408, 2-(1-(2-chlorophenyl)-5-(4-chlorophenyl)-4-methyl-1H-pyrazol-3-yl)-5-cyclohexyl-1,3,4-thiadiazole] the IC50 was 61 nM.
In the case of `Cc1c(-c2nnc(C3CCC3)s2)nn(-c2ccccc2Cl)c1-c1ccc(Cl)cc1` [Example 409, 2-(1-(2-chlorophenyl)-5-(4-chlorophenyl)-4-methyl-1H-pyrazol-3-yl)-5-cyclobutyl-1,3,4-thiadiazole], the IC50 is reported as 58.1 nM.
For `CCC(C)(C)c1nnc(-c2nn(-c3ccccc3Cl)c(-c3ccc(Cl)cc3)c2C)s1` [Example 410, 2-(1-(2-chlorophenyl)-5-(4-chlorophenyl)-4-methyl-1H-pyrazol-3-yl)-5-tert-pentyl-1,3,4-thiadiazole], the IC50 was 11.7 nM.
`CCCC(C)c1nnc(-c2nn(-c3ccc(Cl)cc3Cl)c(-c3ccc(Br)cc3)c2C)s1` (stereo not shown) [Example 413, 2-(5-(4-bromophenyl)-1-(2,4-dichlorophenyl)-4-methyl-1H-pyrazol-3-yl)-5-(pentan-2-yl)-1,3,4-thiadiazole] showed an IC50 of 14.6 nM.
Molecule `CCCC(C)c1nnc(-c2nn(-c3ccc(Cl)cc3Cl)c(-c3ccc(Br)cc3)c2CC)s1` (stereo not shown) [Example 414, 2-(5-(4-bromophenyl)-1-(2,4-dichlorophenyl)-4-ethyl-1H-pyrazol-3-yl)-5-(pentan-2-yl)-1,3,4-thiadiazole] has an IC50 of 9.18 nM.
`CCCCC(C)(C)c1nnc(-c2nn(-c3ccccc3Cl)c(-c3ccc(Cl)cc3)c2C)s1` [Example 415, 2-(1-(2-chlorophenyl)-5-(4-chlorophenyl)-4-methyl-1H-pyrazol-3-yl)-5-(2-methylhexan-2-yl)-1,3,4-thiadiazole] was tested, and the IC50 was 8.02 nM.
`Cc1c(-c2nnc(C(C)(C)c3ccccc3)s2)nn(-c2ccccc2Cl)c1-c1ccc(Cl)cc1` [Example 416, 2-(1-(2-chlorophenyl)-5-(4-chlorophenyl)-4-methyl-1H-pyrazol-3-yl)-5-(2-phenylpropan-2-yl)-1,3,4-thiadiazole] was tested, and the IC50 was 9.27 nM.
With `CCC(C)(C)c1nnc(-c2nn(-c3ccc(Cl)cc3)c(-c3ccc(Br)cc3)c2C)s1` [Example 417, 2-(5-(4-bromophenyl)-1-(4-chlorophenyl)-4-methyl-1H-pyrazol-3-yl)-5-tert-pentyl-1,3,4-thiadiazole] the IC50 was 134 nM.
`CCC(C)c1nnc(-c2nn(-c3ccc(Cl)cc3)c(-c3ccc(Br)cc3)c2C)s1` (stereo not shown) [Example 418, 2-(5-(4-bromophenyl)-1-(4-chlorophenyl)-4-methyl-1H-pyrazol-3-yl)-5-sec-butyl-1,3,4-thiadiazole] showed an IC50 of 465 nM.
With `COC(C)(C)c1nnc(-c2nn(-c3ccc(Cl)cc3Cl)c(-c3ccc(Cl)cc3)c2C)s1` [Example 419, 2-(5-(4-chlorophenyl)-1-(2,4-dichlorophenyl)-4-methyl-1H-pyrazol-3-yl)-5-(2-methoxypropan-2-yl)-1,3,4-thiadiazole] the IC50 was 62.1 nM.
Molecule `CCC(C)(C)c1nnc(-c2nn(-c3ccc(Cl)cc3Cl)c(-c3ccccc3)c2C)s1` [Example 420, 2-(1-(2,4-dichlorophenyl)-4-methyl-5-phenyl-1H-pyrazol-3-yl)-5-tert-pentyl-1,3,4-thiadiazole] has an IC50 of 112 nM.
`Cc1c(-c2nnc(C(C)(C)C)s2)nn(-c2ccc(Cl)cc2Cl)c1-c1ccccc1` [Example 421, 2-tert-butyl-5-(1-(2,4-dichlorophenyl)-4-methyl-5-phenyl-1H-pyrazol-3-yl)-1,3,4-thiadiazole] was tested, and the IC50 was 160 nM.
Molecule `CCC(C)c1nnc(-c2nn(-c3ccc(Cl)cc3Cl)c(-c3ccccc3)c2C)s1` (stereo not shown) [Example 422, 2-sec-butyl-5-(1-(2,4-dichlorophenyl)-4-methyl-5-phenyl-1H-pyrazol-3-yl)-1,3,4-thiadiazole] has an IC50 of 226 nM.

Source: patent US7875647B2, “Heteroaryl-pyrazole derivatives as cannabinoid CB1 receptor antagonists” (Green Cross Corporation, priority 2006, dated 2011)
